According to BigSolDB 2.1:

## O=C(O)CCCCCCC(=O)O
In THF, 283.15 K
  solubility (mole fraction): 0.0356
In THF, 289.75 K
  solubility (mole fraction): 0.0437
In THF, 296.85 K
  solubility (mole fraction): 0.0546
In THF, 303.75 K
  solubility (mole fraction): 0.0665
In THF, 310.75 K
  solubility (mole fraction): 0.0806
In THF, 317.95 K
  solubility (mole fraction): 0.0982
In THF, 324.95 K
  solubility (mole fraction): 0.117
In THF, 331.95 K
  solubility (mole fraction): 0.141
In acetone, 283.15 K
  solubility (mole fraction): 0.006
In acetone, 289.95 K
  solubility (mole fraction): 0.00833
In acetone, 296.85 K
  solubility (mole fraction): 0.0115
In acetone, 303.75 K
  solubility (mole fraction): 0.0154
In acetone, 310.75 K
  solubility (mole fraction): 0.0208
In acetone, 317.55 K
  solubility (mole fraction): 0.0292
In acetone, 322.75 K
  solubility (mole fraction): 0.035
In ethanol, 283.25 K
  solubility (mole fraction): 0.0158
In ethanol, 290.35 K
  solubility (mole fraction): 0.021
In ethanol, 297.05 K
  solubility (mole fraction): 0.0281
In ethanol, 303.85 K
  solubility (mole fraction): 0.0374
In ethanol, 310.95 K
  solubility (mole fraction): 0.0491
In ethanol, 317.85 K
  solubility (mole fraction): 0.0627
In ethanol, 324.85 K
  solubility (mole fraction): 0.0795
In ethyl acetate, 283.15 K
  solubility (mole fraction): 0.00167
In ethyl acetate, 289.95 K
  solubility (mole fraction): 0.00227
In ethyl acetate, 296.85 K
  solubility (mole fraction): 0.0031
In ethyl acetate, 303.95 K
  solubility (mole fraction): 0.00462
In ethyl acetate, 310.95 K
  solubility (mole fraction): 0.0065
In ethyl acetate, 317.75 K
  solubility (mole fraction): 0.00902
In ethyl acetate, 324.85 K
  solubility (mole fraction): 0.0125
In ethyl acetate, 331.75 K
  solubility (mole fraction): 0.0186
In isopropanol, 283.15 K
  solubility (mole fraction): 0.0145
In isopropanol, 289.95 K
  solubility (mole fraction): 0.0198
In isopropanol, 296.95 K
  solubility (mole fraction): 0.0271
In isopropanol, 303.55 K
  solubility (mole fraction): 0.0368
In isopropanol, 310.95 K
  solubility (mole fraction): 0.0486
In isopropanol, 317.95 K
  solubility (mole fraction): 0.0639
In isopropanol, 324.75 K
  solubility (mole fraction): 0.0816
In methanol, 283.25 K
  solubility (mole fraction): 0.0179
In methanol, 290.35 K
  solubility (mole fraction): 0.0242
In methanol, 297.05 K
  solubility (mole fraction): 0.0322
In methanol, 303.85 K
  solubility (mole fraction): 0.0443
In methanol, 310.95 K
  solubility (mole fraction): 0.0572
In methanol, 317.85 K
  solubility (mole fraction): 0.0748
In methanol, 324.85 K
  solubility (mole fraction): 0.0951
In n-propanol, 283.15 K
  solubility (mole fraction): 0.012
In n-propanol, 289.85 K
  solubility (mole fraction): 0.017
In n-propanol, 296.75 K
  solubility (mole fraction): 0.0233
In n-propanol, 303.85 K
  solubility (mole fraction): 0.0308
In n-propanol, 310.75 K
  solubility (mole fraction): 0.0422
In n-propanol, 317.75 K
  solubility (mole fraction): 0.0559
In n-propanol, 325.05 K
  solubility (mole fraction): 0.0718
In water, 283.25 K
  solubility (mole fraction): 9.14e-05
In water, 290.25 K
  solubility (mole fraction): 0.000131
In water, 297.15 K
  solubility (mole fraction): 0.0002
In water, 303.85 K
  solubility (mole fraction): 0.000291
In water, 310.85 K
  solubility (mole fraction): 0.000439
In water, 318.15 K
  solubility (mole fraction): 0.000662
In water, 325.15 K
  solubility (mole fraction): 0.00107
In water, 332.45 K
  solubility (mole fraction): 0.0017
In water, 339.15 K
  solubility (mole fraction): 0.00265
